This is an account of results in ChEMBL document CHEMBL1123196, “p-Dimethoxy-substituted trans-octahydrobenzo[f]- and -[g]quinolines: synthesis and assessment of dopaminergic agonist effects” (1986).

Experiment [1] has as its target D(2) dopamine receptor (Homo sapiens) (UniProt P14416). The experiment is described as follows: Potency was evaluated for the activity against Dopamine receptor D2 of cat cardioaccelerator nerve preparation; Active. The following applies: Felis catus; target entry is the homologue from another species.
In experiment [2] the test system is Felis catus. The experiment is described as follows: Compound at a dose of 100 ug/kg was evaluated for the reversal of the inhibition of nerve stimulation using the cat cardioaccelerator nerve preparation; Reversed inhibition. It is filed as functional, organism-based.
Experiment [3] has as its system Felis catus. The experiment is described as follows: Compound at a dose of 50 ug/kg was evaluated for the reversal of the inhibition of nerve stimulation using the cat cardioaccelerator nerve preparation; Reversed inhibition. It is filed as functional, organism-based.
The species named for experiment [4] is Felis catus. The experiment is described as follows: Inhibitory dose was evaluated against cat cardioaccelerator nerve preparation. It is filed as functional. The following applies: read-out: ID50 (the source's name).
Experiment [5] is filed under the species Felis catus. Nature of the experiment: Inhibitory dose was evaluated for the inhibition of the chronotropic response to nerve stimulation using the cat cardioaccelerator nerve preparation. In kind it is functional. The following applies: read-out: ID50 (the source's name).
For experiment [6], the target named is D(2) dopamine receptor (Homo sapiens) (UniProt P14416). The experiment is described as follows: Antagonistic activity at a dose of 3.08 umol/kg was evaluated against Dopamine receptor D2 in the […] cardioaccelerator nerve preparation; Inactive. It is filed as functional.
The target is the same in experiment [7]. The experiment is described as follows: Agonistic activity at a dose of 3.08 umol/kg was evaluated against Dopamine receptor D2 in the […] cardioaccelerator nerve preparation; Inactive. It is filed as functional. Particulars: Felis catus.
Experiment [8] shares this target. Nature of the experiment: Agonistic activity at a dose of 12.3 umol/kg was evaluated in rats with unilateral lesion of the nigrostriatal pathway (post junctional dopamine receptors); Inactive. In kind it is functional. Particulars: Rattus norvegicus, target entry is the homologue from another species.
Experiment [9] addresses T1, Dopamine receptor (Rattus norvegicus) (UniProt P25115+P19020+P30729+P18901+P61169). Nature of the experiment: Antagonistic activity at a dose of 12.3 umol/kg was evaluated in rats with unilateral lesion of the nigrostriatal pathway (post junctional dopamine receptors); Inactive. It is filed as functional.
The species entered for experiment [10] is Felis catus. Nature of the experiment: Inhibitory dose was evaluated on the cat cardioaccelerator nerve preparation. Particulars: read-out: ID50 (the source's name). It is filed as functional.
For experiment [11], the target named is D(2) dopamine receptor (Homo sapiens) (UniProt P14416). The experiment is described as follows: Antagonistic activity at a dose of 3.4 umol/kg was evaluated against Dopamine receptor D2 in the […] cardioaccelerator nerve preparation; Inactive. The following applies: Felis catus. It is filed as functional.
For experiment [12] the target is unchanged. Nature of the experiment: Agonistic activity at a dose of 13.3 umol/kg was evaluated in rats with unilateral lesion of the nigrostriatal pathway (post junctional dopamine receptors); Inactive. It is filed as functional. Particulars: Rattus norvegicus, target entry is the homologue from another species.
Experiment [13] has the same target. Nature of the experiment: Agonistic activity at a dose of 3.4 umol/kg was evaluated against Dopamine receptor D2 in the […] cardioaccelerator nerve preparation; Inactive. In kind it is functional. The following applies: Felis catus.
In experiment [14] the target is T1, Dopamine receptor (Rattus norvegicus). Nature of the experiment: Antagonistic activity at a dose of 13.3 umol/kg was evaluated in rats with unilateral lesion of the nigrostriatal pathway (post junctional dopamine receptors); Inactive. In kind it is functional.

The structures appear in SMILES notation. The source made the active and inactive calls. The calls are words filed in the database; no cut-off is given here.

D(2) dopamine receptor (Homo sapiens), sequence (P14416 whole entry): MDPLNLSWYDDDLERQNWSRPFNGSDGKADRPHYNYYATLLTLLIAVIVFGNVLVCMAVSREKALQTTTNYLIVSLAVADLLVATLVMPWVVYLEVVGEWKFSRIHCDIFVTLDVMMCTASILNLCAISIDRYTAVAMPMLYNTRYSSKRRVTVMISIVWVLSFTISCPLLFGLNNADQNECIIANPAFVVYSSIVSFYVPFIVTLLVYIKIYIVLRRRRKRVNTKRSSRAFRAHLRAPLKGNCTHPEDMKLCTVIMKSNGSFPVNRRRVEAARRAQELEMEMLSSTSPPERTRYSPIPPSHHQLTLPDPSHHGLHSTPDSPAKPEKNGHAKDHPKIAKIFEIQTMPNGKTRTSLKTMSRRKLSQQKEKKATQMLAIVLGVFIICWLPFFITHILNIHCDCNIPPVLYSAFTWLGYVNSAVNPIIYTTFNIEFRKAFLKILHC

Regarding `CCCN(CCC)C1Cc2cccc(O)c2C1` (stereo not given), in [1], the outcome was Active. With `CCCN(CCC)C1CCc2c(O)cccc2C1` (stereo not given), the result in experiment [1] was Active. `O=C(CCCN1CCC(O)(c2ccc(Cl)cc2)CC1)c1ccc(F)cc1`: the outcome in the experiment on Felis catus [2] and with Felis catus [3] was Active. Regarding `CCCN1CCC[C@@H]2Cc3c(OC)ccc(OC)c3C[C@H]21`, in the experiment filed under Felis catus [4], the ED50 came out at 0.032 µmol/kg. On to `CCCN1CCC[C@H]2c3c(OC)ccc(OC)c3CC[C@@H]21`, for which the ED50 in the experiment filed under Felis catus [5] amounted to 1.17 µmol/kg. As for `CCCN1CCC[C@@H]2c3c(OC)ccc(OC)c3CC[C@@H]21`, the outcome in experiment [6], in [7], in experiment [8] and in [9] was inactive. As to `CN1CCc2cccc3c2[C@H]1Cc1ccc(O)c(O)c1-3` [APOMORPHINE], the ED50 in the experiment filed under Felis catus [10] stood at 0.022 µmol/kg. For the compound `CCCN(CCC)CCc1cc(OC)ccc1OC`, the result in experiment [11], in [12], in experiment [13] and in [14] was inactive.
